Reference: PubChem BioAssay AID1963433 (Molecular Pharmacology Branch, DTP, NCI, 2024)

Test system: 772245-204-R-J1-PDC complex spheroid growth
Assay: Anticancer human tumor 772245-204-R-J1-PDC patient-derived rhabdomyosarcoma cell line growth inhibition [Asc]
Conditions: for IC50: curve of first compound; for viability, T/C: stronger effect = lower value
In short: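 Stromal components (HUVEC and hMSC) are co-assembled with the cancer cells into multicellular spheroids. Drugs are then added singly or paired, at concentrations falling by half-log increments from a clinically achievable maximum, capped at 10 microM without known Cmax.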

[1] = second compound 0.03 µM, first compound 0.0316 µM
[2] = second compound 0.03 µM, first compound 0.1 µM
[3] = second compound 0.03 µM, first compound 0.316 µM
[4] = second compound 0.03 µM, first compound 1 µM
[5] = second compound 0.03 µM, first compound 3.16 µM
[6] = second compound 0.03 µM, first compound 10 µM
[7] = second compound 0.0949 µM, first compound 0.0316 µM
[8] = second compound 0.0949 µM, first compound 0.1 µM
[9] = second compound 0.0949 µM, first compound 0.316 µM
[10] = second compound 0.0949 µM, first compound 1 µM
[11] = second compound 0.0949 µM, first compound 3.16 µM
[12] = second compound 0.0949 µM, first compound 10 µM
[13] = second compound 0.3 µM, first compound 0.0316 µM
[14] = second compound 0.3 µM, first compound 0.1 µM
[15] = second compound 0.3 µM, first compound 0.316 µM
[16] = second compound 0.3 µM, first compound 1 µM
[17] = second compound 0.3 µM, first compound 3.16 µM
[18] = second compound 0.3 µM, first compound 10 µM
[19] = second compound 0.949 µM, first compound 0.0316 µM
[20] = second compound 0.949 µM, first compound 0.1 µM
[21] = second compound 0.949 µM, first compound 0.316 µM
[22] = second compound 0.949 µM, first compound 1 µM
[23] = second compound 0.949 µM, first compound 3.16 µM
[24] = second compound 0.949 µM, first compound 10 µM
[25] = second compound 3 µM, first compound 0.0316 µM
[26] = second compound 3 µM, first compound 0.1 µM
[27] = second compound 3 µM, first compound 0.316 µM
[28] = second compound 3 µM, first compound 1 µM
[29] = second compound 3 µM, first compound 3.16 µM
[30] = second compound 3 µM, first compound 10 µM
[31] = second compound 0.03 µM, first compound 0.00316 µM
[32] = second compound 0.03 µM, first compound 0.01 µM
[33] = second compound 0.0949 µM, first compound 0.00316 µM
[34] = second compound 0.0949 µM, first compound 0.01 µM
[35] = second compound 0.3 µM, first compound 0.00316 µM
[36] = second compound 0.3 µM, first compound 0.01 µM
[37] = second compound 0.949 µM, first compound 0.00316 µM
[38] = second compound 0.949 µM, first compound 0.01 µM
[39] = second compound 3 µM, first compound 0.00316 µM
[40] = second compound 3 µM, first compound 0.01 µM
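Further: compound exposure lasted seven days.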
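Wherever viability, T/C is given: 100% = DMSO vehicle control viability.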

Row | SMILES | IC50 (second compound 0.03 µM) | IC50 (second compound 0.0949 µM) | IC50 (second compound 0.3 µM) | IC50 (second compound 0.949 µM) | IC50 (second compound 3 µM) | viability, T/C [1] | viability, T/C [2] | viability, T/C [3] | viability, T/C [4] | viability, T/C [7] | viability, T/C [8] | viability, T/C [9] | viability, T/C [10] | viability, T/C [13] | viability, T/C [14] | viability, T/C [15] | viability, T/C [16] | viability, T/C [19] | viability, T/C [20] | viability, T/C [21] | further results
1 | C#Cc1c(F)ccc2cc(O)cc(-c3ncc4c(N5CC6CCC(C5)N6)nc(OCC56CCCN5CC(F)C6)nc4c3F)c12 (stereo not given) + CCN1C(C(=O)NC23CCC(C(=O)O)(CC2)CC3)C(c2cccc(Cl)c2F)C2(C(=O)Nc3cc(Cl)ccc32)C12CCCCC2 | > 10000 nM | > 10000 nM | > 10000 nM | > 10000 nM | > 10000 nM | 98.8% | 106% | 94.8% | 95.8% | 98.4% | 91.9% | 93% | 86% | 108% | 99.2% | 106% | 111% | 90% | 90.9% | 86% | viability, T/C [5]: 118%; viability, T/C [6]: 89.5%; viability, T/C [11]: 93.5%; viability, T/C [12]: 78.4%; viability, T/C [17]: 81.2%; viability, T/C [18]: 80.6%; viability, T/C [22]: 86.9%; viability, T/C [23]: 91.6%; viability, T/C [24]: 76.5%; viability, T/C [25]: 73.1%; viability, T/C [26]: 79.2%; viability, T/C [27]: 77.1%; viability, T/C [28]: 67.8%; viability, T/C [29]: 67.3%; viability, T/C [30]: 54.2%
2 | C=C(F)C(=O)N1CCN(c2nc(OCC3CCCN3C)nc3c2CCN(c2cccc4cccc(Cl)c24)C3)CC1CC#N (stereo not given) + CCN1C(C(=O)NC23CCC(C(=O)O)(CC2)CC3)C(c2cccc(Cl)c2F)C2(C(=O)Nc3cc(Cl)ccc32)C12CCCCC2 | 3920 nM | 3940 nM | 4430 nM | 3290 nM | 2110 nM | 94.9% | 101% | 83.1% | 97.2% | 93.7% | 94.5% | 85.3% | 89.6% | 95.8% | 96.7% | 85.6% | 87% | 92.3% | 83.7% | 91.6% | viability, T/C [5]: 61.6%; viability, T/C [6]: 0.2%; viability, T/C [11]: 61.7%; viability, T/C [12]: 0.17%; viability, T/C [17]: 71.8%; viability, T/C [18]: 0.18%; viability, T/C [22]: 96.7%; viability, T/C [23]: 51.9%; viability, T/C [24]: 0.16%; viability, T/C [25]: 72.7%; viability, T/C [26]: 79.8%; viability, T/C [27]: 72.5%; viability, T/C [28]: 73%; viability, T/C [29]: 37.5%; viability, T/C [30]: 0.38%
3 | C=CC(=O)N1CCN(c2nc(=O)n(-c3c(C)ccnc3C(C)C)c3nc(-c4c(O)cccc4F)c(F)cc23)C(C)C1 (stereo not given) + CCN1C(C(=O)NC23CCC(C(=O)O)(CC2)CC3)C(c2cccc(Cl)c2F)C2(C(=O)Nc3cc(Cl)ccc32)C12CCCCC2 | > 10000 nM | > 10000 nM | > 10000 nM | > 10000 nM | > 10000 nM | 105% | 102% | 94.9% | 113% | 112% | 104% | 103% | 102% | 104% | 111% | 113% | 113% | 111% | 94.8% | 99.5% | viability, T/C [5]: 110%; viability, T/C [6]: 86.4%; viability, T/C [11]: 106%; viability, T/C [12]: 103%; viability, T/C [17]: 113%; viability, T/C [18]: 93.8%; viability, T/C [22]: 105%; viability, T/C [23]: 104%; viability, T/C [24]: 79.3%; viability, T/C [25]: 81.9%; viability, T/C [26]: 85.7%; viability, T/C [27]: 74%; viability, T/C [28]: 77%; viability, T/C [29]: 75.2%; viability, T/C [30]: 60.8%
4 | CNC(C)C(=O)NC1CN(S(=O)(=O)c2cccc(S(=O)(=O)N3CCC4CCC(C(=O)NC(c5ccccc5)c5ccccc5)N4C(=O)C(NC(=O)C(C)NC)C3)c2)CCC2CCC(C(=O)NC(c3ccccc3)c3ccccc3)N2C1=O (stereo not given) + CCN1C(C(=O)NC23CCC(C(=O)O)(CC2)CC3)C(c2cccc(Cl)c2F)C2(C(=O)Nc3cc(Cl)ccc32)C12CCCCC2 | > 1000 nM | > 1000 nM | > 1000 nM | > 1000 nM | 577 nM | 88% | 91.8% | 94.9% | 86.8% | 75.3% | 89.7% | 79.2% | 85.3% | 84.6% | 68.9% | 70.8% | 88.1% | 78.8% | 75.2% | 73% | viability, T/C [31]: 86.2%; viability, T/C [32]: 102%; viability, T/C [33]: 94.5%; viability, T/C [34]: 98.9%; viability, T/C [35]: 74.8%; viability, T/C [36]: 83%; viability, T/C [37]: 88.2%; viability, T/C [38]: 87.4%; viability, T/C [22]: 62.4%; viability, T/C [39]: 72.8%; viability, T/C [40]: 62.2%; viability, T/C [25]: 60.2%; viability, T/C [26]: 56.7%; viability, T/C [27]: 43.2%; viability, T/C [28]: 53.2%
5 | COc1c(OCCCN2CCOCC2)ccc2c3n(c(=NC(=O)c4cnc(N)nc4)nc12)CCN3 + CCN1C(C(=O)NC23CCC(C(=O)O)(CC2)CC3)C(c2cccc(Cl)c2F)C2(C(=O)Nc3cc(Cl)ccc32)C12CCCCC2 | 188 nM | 146 nM | 90.5 nM | 139 nM | 51.4 nM | 83.7% | 61.6% | 41.8% | 32.3% | 80% | 57.5% | 35.6% | 24.8% | 84.7% | 46.6% | 39.1% | 30% | 77.2% | 55.2% | 37.3% | viability, T/C [31]: 99.5%; viability, T/C [32]: 105%; viability, T/C [33]: 105%; viability, T/C [34]: 97.6%; viability, T/C [35]: 103%; viability, T/C [36]: 109%; viability, T/C [37]: 105%; viability, T/C [38]: 99%; viability, T/C [22]: 23%; viability, T/C [39]: 69.3%; viability, T/C [40]: 78.5%; viability, T/C [25]: 57.4%; viability, T/C [26]: 38.1%; viability, T/C [27]: 29.5%; viability, T/C [28]: 26.6%
